The results in this text go back to ChEMBL document CHEMBL1201862, “PubChem BioAssay data set” (2004).

For orientation: EC50 means the concentration at which the effect is half-maximal. One may read the IC50 as the concentration needed to halve the response being measured.

What all share (assay type): functional
Experiment [1] deals with T1, Short transient receptor potential channel 4 (Mus musculus, UniProt Q9QUQ5).
T1 sequence (Q9QUQ5 whole entry): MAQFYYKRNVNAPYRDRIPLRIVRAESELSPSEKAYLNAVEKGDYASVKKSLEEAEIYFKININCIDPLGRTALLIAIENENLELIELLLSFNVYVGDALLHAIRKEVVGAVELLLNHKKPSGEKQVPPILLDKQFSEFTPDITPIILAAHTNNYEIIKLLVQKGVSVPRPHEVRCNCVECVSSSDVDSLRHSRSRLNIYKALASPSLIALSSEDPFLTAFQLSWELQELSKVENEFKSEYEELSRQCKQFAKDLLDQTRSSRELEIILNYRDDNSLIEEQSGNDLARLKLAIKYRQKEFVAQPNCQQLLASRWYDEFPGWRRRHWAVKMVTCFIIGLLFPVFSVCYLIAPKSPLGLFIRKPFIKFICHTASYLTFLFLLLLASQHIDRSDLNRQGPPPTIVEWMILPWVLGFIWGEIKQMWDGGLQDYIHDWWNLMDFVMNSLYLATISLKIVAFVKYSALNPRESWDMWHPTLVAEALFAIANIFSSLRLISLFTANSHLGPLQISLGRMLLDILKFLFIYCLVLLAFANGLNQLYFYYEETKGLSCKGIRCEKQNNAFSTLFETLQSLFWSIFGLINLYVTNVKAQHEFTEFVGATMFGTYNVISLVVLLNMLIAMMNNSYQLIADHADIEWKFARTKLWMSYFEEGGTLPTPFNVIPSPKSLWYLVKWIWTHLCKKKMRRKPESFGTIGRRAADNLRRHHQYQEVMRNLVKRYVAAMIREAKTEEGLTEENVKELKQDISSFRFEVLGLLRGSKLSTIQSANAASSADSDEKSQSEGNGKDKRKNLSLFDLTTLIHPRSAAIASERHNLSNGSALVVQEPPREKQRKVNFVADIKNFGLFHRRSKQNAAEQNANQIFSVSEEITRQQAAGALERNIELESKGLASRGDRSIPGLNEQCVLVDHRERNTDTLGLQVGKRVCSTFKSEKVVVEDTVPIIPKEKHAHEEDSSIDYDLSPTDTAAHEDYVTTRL
Put plainly: block of DAMGO-driven TRPC4 calcium entry – cell-based, HEK293 TRPC4/mu-opioid, Fluo-4 calcium, dose response (AID 434942).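 Further: potency of inhibitors blocking the TRPC4 calcium response.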

The target in experiment [2] is T2, Heat shock factor protein 1 (Mus musculus, UniProt P38532).
T2 sequence (P38532 whole entry): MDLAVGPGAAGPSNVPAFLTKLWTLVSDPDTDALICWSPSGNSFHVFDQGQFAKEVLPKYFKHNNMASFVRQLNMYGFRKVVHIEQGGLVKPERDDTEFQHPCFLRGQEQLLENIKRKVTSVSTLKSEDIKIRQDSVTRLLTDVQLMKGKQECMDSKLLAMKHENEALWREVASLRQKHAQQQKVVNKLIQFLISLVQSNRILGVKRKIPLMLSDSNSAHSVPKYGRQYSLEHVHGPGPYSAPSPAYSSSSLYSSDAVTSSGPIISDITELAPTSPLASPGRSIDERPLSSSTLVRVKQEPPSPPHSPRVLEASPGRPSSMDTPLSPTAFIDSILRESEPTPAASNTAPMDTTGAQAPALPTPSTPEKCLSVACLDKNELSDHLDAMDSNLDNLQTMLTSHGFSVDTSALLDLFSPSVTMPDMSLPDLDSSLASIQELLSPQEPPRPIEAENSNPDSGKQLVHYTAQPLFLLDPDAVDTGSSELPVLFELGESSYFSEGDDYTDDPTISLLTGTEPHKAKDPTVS
Put plainly: enhancement of HSF1-driven luciferase signal – cell-based, NIH3T3, luminescence, dose retest, confirmation (AID 435004).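 Further: stress induced by proteasome inhibitor MG132 added 30 min after compound; luciferase reporter driven by HSF1 response element in NIH3T3 cells; actives raise luminescence as potentiators of the MG132 stress response.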

The target in experiment [3] is T1, Short transient receptor potential channel 4. Put plainly: SAR Analysis for the identification of selective inhibits of the transient receptor potential cation channel C4 (TRPC4): Automated Electrophysiology. [Related pubchem assays (depositor defined):AID2256].

The source made the active and inactive calls. Unless noted, the calls are words filed in the database; no cut-off is given here.

With `COc1ccc2c(C)cc(N3CCCCCC3)nc2c1`, the figures for the concentration giving a half-maximal response (EC50) in experiment [1] and in experiment [2] were 531 nM (active) and > 260000 nM (inactive), respectively. Besides, the IC50 in experiment [3] was 2380 nM (active).
